Reference: PMC7213079, “Hit Identification of New Potent PqsR Antagonists as Inhibitors of Quorum Sensing in Planktonic and Biofilm Grown Pseudomonas aeruginosa” (Frontiers in Chemistry, 2020)

Tested on: PAO1-L mCTX::PpqsA-lux
Assay: PpqsA-lux bioreporter assay, strain PAO1-L
Type: cell-based, Pseudomonas aeruginosa
Settings: Pseudomonas aeruginosa, PAO1, read-out: IC50 PAO1-L
Protocol: In silico virtual screening was performed on the PqsR ligand binding domain (LBD) crystal structure [PDB: 4JVI; (Ilangovan et al., [2013])] using the University of Nottingham Managed Chemical Compound Collection (MCCC) containing 85,061 compounds. Molecular docking was performed using both the OpenEye docking (OpenEye Scientific Software Inc. (Hawkins et al., [2007]) and Schrödinger Suite for molecular modeling (Friesner et al., [2004]; Halgren et al., [2004]). A cut off value of the docking score function was set to -9.0 and the resulting high scoring compounds were further examined (Friesner et al., [2004]; Halgren et al., [2004]). This gave a library of around 500 diverse molecules that were evaluated using in vitro screening in a P. aeruginosa PAO1-L mCTX::PPqsA-lux reporter assay (Diggle et al., [2011]).
To inform the structural variation of 7, crystal structures with the endogenous ligand [4-hydroxy-2-heptylquinoline (NHQ)] and the inhibitor M64 were used (Ilangovan et al., [2013]; Kitao et al., [2018]). The PqsR LBD is dominated by lipophilic interactions, therefore the current SAR exploration mainly focused on varying the aromatic tail substituents and examining the effect of 8-position substitution. The rationale for these modifications was primarily based on molecular docking studies that provided insights into the mode of binding of 7 and approaches intended to improve potency. The substituent at the para- position of the aromatic ring appeared to be crucial for biological activity due to the vital π-π stacking interaction of this group with Tyr^258. […] These strains emit light upon activation of PqsR by the endogenous production of these signal molecules. […] The results of the SAR in this assay highlight the importance of testing any prospective anti-virulence strategy on multiple genetically distinct P. aeruginosa strains as a means to reduce the chance of failure at both pre-clinical and clinical stages (Freschi et al., [2015]).
PAO1-L Wild type PAO1, Lausanne subline. B.
PAO1-L mCTX::PpqsA- PAO1-L with chromosomal mini-CTX::PpqsA-lux (Soukarieh lux insertion; TcR et al., 2018) […]
mini-CTX::PpqsA-lux R6K-based mini-CTX suicide plasmid for the (Diggle et chromosomal insertion of a PpqsA-lux al., 2007) transcriptional reporter fusion; TcR
Biosensor reporter assay:
Strains PA14 mCTX::PpqsA-lux and PAO1-L mCTX::PpqsA-lux were constructed using plasmid mini-CTX::PpqsA-lux as previously described (Diggle et al., 2007) and the assay was performed according to published procedures (Fletcher et al., 2007). For screening, the compounds were tested at 10 µM concentration which was prepared from 10 mM stock in DMSO. […]

## Cn1c2ccccc2c2nnc(SCC(=O)Nc3ccc(Oc4ccccn4)cc3)nc21 [Compound 40, 2-((5-Methyl-5H-[1,2,4]triazino[5,6-b]indol-3-yl)thio)-N-(4-(pyridin-2-yloxy)phenyl)acetamide]
  IC50: 250 ± 120 nM
